Data published in patent US11090247B2, “Compositions for protecting the skin from heavy metals and formaldehyde” (FNG RESEARCH CO., LTD., priority 2016, dated 2021).

Key:
[1] = Removal test of heavy metals of active ingredients (pig skin, ICP-MS): Pb; details: contaminated pig skin
[2] = Removal test of heavy metals of active ingredients (pig skin, ICP-MS): Cd; details: contaminated pig skin
[3] = Removal test of heavy metals of active ingredients (pig skin, ICP-MS): Cu; details: contaminated pig skin
[4] = tested on: human skin; assay: Skin irritation test of active ingredient (patch method, CTFA guidelines); format: in vivo; design: key to Degree of irritation: 0–0.1 none, 0.11–0.3 weak, 0.31–0.5 moderate, ≥0.51 strong irritation; details: 20 people, patch 24 hours; for Test result(number of subject) (+): (+): Apparent reddening than periphery; for Test result(number of subject) (++): (++): More reddened and swollen than periphery; for Test result(number of subject) (±): (±): slightly reddish than the periphery; for Test result(number of subject) (−): (−): No erythema or particularly no symptoms
[5] = Formaldehyde removing ability test (GC); details: 2.0% formaldehyde solution; for Area (mAU*min) 30 min: formaldehyde GC area after 30 min; for Area (mAU*min) 30 min / Area (mAU*min) 180 min: 3 molar equivalents, room temperature; for Area (mAU*min) 180 min: formaldehyde GC area after 180 min; for Area (mAU*min) Initial: formaldehyde GC area, initial state, 3 molar equivalents of compound

With `O=C(O)c1cncc(N2CCCN(c3cncc(C(=O)O)c3)CCN(c3cncc(C(=O)O)c3)CCCN(c3cncc(C(=O)O)c3)CC2)c1` [Embodiment 11, 5,5′,5″,5′″-(1,4,8,11-tetraazacyclotetradecane-1,4,8,11-tetrayl)tetranicotinic acid] the “Removal of Heavy metals Pb (%)” value ([1]; 0.1 wt % aqueous solution) was 87.9%, the “Removal of Heavy metals Pb (%)” value ([1]; 0.5 wt % aqueous solution) was 89.2% and the “Removal of Heavy metals Pb (%)” value ([1]; 1.0 wt % aqueous solution) was 91.2%. The “Removal of Heavy metals Cd (%)” value ([2]; 0.1 wt % aqueous solution) was 86.7%, the “Removal of Heavy metals Cd (%)” value ([2]; 0.5 wt % aqueous solution) was 88.9% and the “Removal of Heavy metals Cd (%)” value ([2]; 1.0 wt % aqueous solution) was 91.0%. For the same compound, the “Removal of Heavy metals Cu (%)” value ([3]; 0.1 wt % aqueous solution) was 93.8%, the “Removal of Heavy metals Cu (%)” value ([3]; 0.5 wt % aqueous solution) was 96.0% and the “Removal of Heavy metals Cu (%)” value ([3]; 1.0 wt % aqueous solution) was 96.8%. For the same compound, the Degree of irritation ([4]; 0.1 wt %) was 0, the Grade ([4]; 0.1 wt %) was “I (Degree of irritation 0-0.1: Grade I (unstimulated))” and the “Test result(number of subject) (+)” value ([4]; 0.1 wt %) was 0. For the same compound, the “Test result(number of subject) (++)” value ([4]; 0.1 wt %) was 0, the “Test result(number of subject) (±)” value ([4]; 0.1 wt %) was 0 and the “Test result(number of subject) (−)” value ([4]; 0.1 wt %) was 20. The Degree of irritation ([4]; 0.5 wt %) was 0, the Grade ([4]; 0.5 wt %) was “I (Degree of irritation 0-0.1: Grade I (unstimulated))” and the “Test result(number of subject) (+)” value ([4]; 0.5 wt %) was 0. For the same compound, the “Test result(number of subject) (++)” value ([4]; 0.5 wt %) was 0, the “Test result(number of subject) (±)” value ([4]; 0.5 wt %) was 0 and the “Test result(number of subject) (−)” value ([4]; 0.5 wt %) was 20. For the same compound, the Degree of irritation ([4]; 1.0 wt %) was 0.10, the Grade ([4]; 1.0 wt %) was “I (Degree of irritation 0-0.1: Grade I (unstimulated))” and the “Test result(number of subject) (+)” value ([4]; 1.0 wt %) was 0. For the same compound, the “Test result(number of subject) (++)” value ([4]; 1.0 wt %) was 0, the “Test result(number of subject) (±)” value ([4]; 1.0 wt %) was 2 and the “Test result(number of subject) (−)” value ([4]; 1.0 wt %) was 18. The “Area (mAU*min) 30 min” value [5] was 0.174 mAU*min, the “Area (mAU*min) 180 min” value [5] was 0 mAU*min and the “Area (mAU*min) Initial” value [5] was 0.305 mAU*min.

For `O=C(O)c1ccc(N2CCCN(c3ccc(C(=O)O)o3)CCN(c3ccc(C(=O)O)o3)CCCN(c3ccc(C(=O)O)o3)CC2)o1` [Embodiment 12, 5,5′,5″,5′″-(1,4,8,11-tetraazacyclotetradecane-1,4,8,11-tetrayl)tetrakis(furan-2-carboxylic acid)], the “Removal of Heavy metals Pb (%)” value ([1]; 0.1 wt % aqueous solution) was 89.1%, the “Removal of Heavy metals Pb (%)” value ([1]; 0.5 wt % aqueous solution) was 90.9% and the “Removal of Heavy metals Pb (%)” value ([1]; 1.0 wt % aqueous solution) was 91.3%. For the same compound, the “Removal of Heavy metals Cd (%)” value ([2]; 0.1 wt % aqueous solution) was 90.1%, the “Removal of Heavy metals Cd (%)” value ([2]; 0.5 wt % aqueous solution) was 90.7% and the “Removal of Heavy metals Cd (%)” value ([2]; 1.0 wt % aqueous solution) was 90.9%. For the same compound, the “Removal of Heavy metals Cu (%)” value ([3]; 0.1 wt % aqueous solution) was 94.5%, the “Removal of Heavy metals Cu (%)” value ([3]; 0.5 wt % aqueous solution) was 95.8% and the “Removal of Heavy metals Cu (%)” value ([3]; 1.0 wt % aqueous solution) was 96.3%. For the same compound, the Degree of irritation ([4]; 0.1 wt %) was 0, the Grade ([4]; 0.1 wt %) was “I (Degree of irritation 0-0.1: Grade I (unstimulated))” and the “Test result(number of subject) (+)” value ([4]; 0.1 wt %) was 0. For the same compound, the “Test result(number of subject) (++)” value ([4]; 0.1 wt %) was 0, the “Test result(number of subject) (±)” value ([4]; 0.1 wt %) was 0 and the “Test result(number of subject) (−)” value ([4]; 0.1 wt %) was 20. The Degree of irritation ([4]; 0.5 wt %) was 0, the Grade ([4]; 0.5 wt %) was “I (Degree of irritation 0-0.1: Grade I (unstimulated))” and the “Test result(number of subject) (+)” value ([4]; 0.5 wt %) was 0. For the same compound, the “Test result(number of subject) (++)” value ([4]; 0.5 wt %) was 0, the “Test result(number of subject) (±)” value ([4]; 0.5 wt %) was 0 and the “Test result(number of subject) (−)” value ([4]; 0.5 wt %) was 20. The Degree of irritation ([4]; 1.0 wt %) was 0.05, the Grade ([4]; 1.0 wt %) was “I (Degree of irritation 0-0.1: Grade I (unstimulated))” and the “Test result(number of subject) (+)” value ([4]; 1.0 wt %) was 0. The “Test result(number of subject) (++)” value ([4]; 1.0 wt %) was 0, the “Test result(number of subject) (±)” value ([4]; 1.0 wt %) was 1 and the “Test result(number of subject) (−)” value ([4]; 1.0 wt %) was 19. The “Area (mAU*min) 30 min” value [5] was 0.170 mAU*min, the “Area (mAU*min) 180 min” value [5] was 0 mAU*min and the “Area (mAU*min) Initial” value [5] was 0.305 mAU*min.

For `NCCNCCNCCN` [Trientine, Triethylenetetramine, reference compound], the “Removal of Heavy metals Pb (%)” value ([1]; 0.1 wt % aqueous solution) was 89.7%, the “Removal of Heavy metals Pb (%)” value ([1]; 0.5 wt % aqueous solution) was 92.1% and the “Removal of Heavy metals Pb (%)” value ([1]; 1.0 wt % aqueous solution) was 92.3%. For the same compound, the “Removal of Heavy metals Cd (%)” value ([2]; 0.1 wt % aqueous solution) was 87.3%, the “Removal of Heavy metals Cd (%)” value ([2]; 0.5 wt % aqueous solution) was 92.4% and the “Removal of Heavy metals Cd (%)” value ([2]; 1.0 wt % aqueous solution) was 92.3%. For the same compound, the “Removal of Heavy metals Cu (%)” value ([3]; 0.1 wt % aqueous solution) was 92.6%, the “Removal of Heavy metals Cu (%)” value ([3]; 0.5 wt % aqueous solution) was 95.4% and the “Removal of Heavy metals Cu (%)” value ([3]; 1.0 wt % aqueous solution) was 96.0%. For the same compound, the Degree of irritation ([4]; 0.1 wt %) was 0, the Grade ([4]; 0.1 wt %) was “I (Degree of irritation 0-0.1: Grade I (unstimulated))” and the “Test result(number of subject) (+)” value ([4]; 0.1 wt %) was 0. For the same compound, the “Test result(number of subject) (++)” value ([4]; 0.1 wt %) was 0, the “Test result(number of subject) (±)” value ([4]; 0.1 wt %) was 0 and the “Test result(number of subject) (−)” value ([4]; 0.1 wt %) was 20. The Degree of irritation ([4]; 0.5 wt %) was 0.05, the Grade ([4]; 0.5 wt %) was “I (Degree of irritation 0-0.1: Grade I (unstimulated))” and the “Test result(number of subject) (+)” value ([4]; 0.5 wt %) was 0. For the same compound, the “Test result(number of subject) (++)” value ([4]; 0.5 wt %) was 0, the “Test result(number of subject) (±)” value ([4]; 0.5 wt %) was 1 and the “Test result(number of subject) (−)” value ([4]; 0.5 wt %) was 19. For the same compound, the Degree of irritation ([4]; 1.0 wt %) was 0.15, the Grade ([4]; 1.0 wt %) was “II (Degree of irritation 0.11-0.3: Grade II (weakly stimulated))” and the “Test result(number of subject) (+)” value ([4]; 1.0 wt %) was 0. For the same compound, the “Test result(number of subject) (++)” value ([4]; 1.0 wt %) was 0, the “Test result(number of subject) (±)” value ([4]; 1.0 wt %) was 3 and the “Test result(number of subject) (−)” value ([4]; 1.0 wt %) was 17. For the same compound, the “Area (mAU*min) 30 min” value [5] was 0.168 mAU*min, the “Area (mAU*min) 180 min” value [5] was 0 mAU*min and the “Area (mAU*min) Initial” value [5] was 0.305 mAU*min.
